Source: patent publication US20110306035A1, “Methods and Compositions for Detection of a Pathogen, Disease, Medical Condition, or Biomarker Thereof” (priority 2008, published 2011)
Square brackets hold non-standard residues; d marks the D form. Peptide text beside a SMILES is read from it. * marks the point of attachment. Sta = CC(C)C[C@H](N)[C@@H](O)CC(=O)O; pNA = O=[N+]([O-])c1ccc(N*)cc1; Isovaleryl = CC(C)CC(=O)*; MeOSuc = COC(=O)CCC(=O)*

Tests used:
Format in all cases: biochemical
[1] = biological target: T1, recombinant HRV 3C protease (Human rhinovirus 14, UniProt P03303); test: HRV 3C protease activity with inhibitors (Buffer+3C, PEP1); details: 4 μM PEP1; 50 nM recombinant HRV 3C protease
T1 construct: Reactions were performed at 4 μM PEP1 and 50 nM recombinant HRV 3C protease
Protocol: (§1) All inhibitors were dissolved at 100×, aliquoted, stored and used according to the manufacturers' instructions. No freeze thaw cycles were imposed on the inhibitors. Prior to starting the assay by addition of substrate, 10 μl of the cocktail or individual inhibitor was incubated for 5 min with 90 μl of the sample/buffer+ HRV protease.
(§2) To test the effect of the inhibitors on protease activity (Buffer+3C) and on background noise present in a nasal wash specimen pool, reaction rates were compared with or without the inhibitors in question (Table 12). Reactions were performed at 4 μM PEP1 and 50 nM recombinant HRV 3C protease for 5 min under starting buffer environment. A nasal wash specimen pool of four HRV negative specimens by RT-PCR was used due to insufficient volume from an individual specimen and to reproduce equal conditions throughout the experiments.
(§3) Results with and without inhibitory cocktail and with cocktail+recombinant HRV 3C protease are shown for both the specimen pool (FIG. 21A) and human WBC at ˜1×10^6 cell/ml (FIG. 21B). […] Spiking of recombinant HRV 3C protease to reactions with the inhibitory cocktail induced specific HRV protease activities at normal rates. Reactions were performed with 4 μM PEP1 and 50 nM recombinant HRV 3C protease where indicated (by +3C). The data are representative of two independent repeats.

[2] = tested on: non specific proteolytic activity of the nasal wash specimen; test: Background noise in nasal wash specimen pool (HRV assay, PEP1); details: 4 μM PEP1; 5 min
Protocol: as §1, §2, §3

a-Chymotrypsin Type IV = biological target: T2, a-Chymotrypsin Type IV (Bos taurus, UniProt P00766, DEL14-15/DEL147-148); test: Competition inhibition of chymotrypsin by two substrates; details: Sub.-1 50 nM, Enzyme 100 pg/ml
T2 construct: purchased
Protocol: • Dilution and reaction Buffer: HEPES 100 mM pH=7.5. • Substrate 1 (Sub.-1) Camb-2.4 (a batch of Camb2 substrate): FRET substrate based on Alexa 532 fluorophore. • Substrate 2 (Sub.-2): Commercially available colorimetric base (420NM) a-Chymotrypsin substrate. Dissolve in 1:1 HEPES/DMSO to 20 mm. additional 1:10 dilution was done in HEPES buffer. • Enzyme—a-Chymotrypsin: Commercially available a-Chymotrypsin Type IV was diluted in HEPES buffer to a stock of 20 ug/ml. Fluorimeter: DMV, Polar-Star Galaxy. Parameters: • Ex. […]. • Temprature RT. • Total reading Time 10 min. Gain 90
• Solution-1: HEPES buffer. • Solution-2: Substrate-1 stock was diluted 1:10 in 1000 ul HEPES to give a 2× solution of 100 nM. • Solution-3, a-d: Substrate-2 stock was serially diluted 1:10 with HEPES and 10 ul of each dilution was added into 40 ul of HEPES. a-400 uM, b-40 uM, c-4 uM, d-400 nM (10× solutions) • Solution-4: Enzyme stock was diluted 1:20 into 300 ul of HEPES to give a 10× solution.
Using a multi-Channel pipette, the above Solutions were added into a non binding blacked bottom 96 wells plat, using columns 1-6 of rows A-C. 30 ul Solution-1 and 50 ul Solution-2 were added to each well. Into rows A-C, 10 ul of Solution-1 was added to columns 1 and 2, 10 ul Solution-3a was added to column 3, 10 ul Solution-3b was added to column 4, 10 ul Solution-3c was added to column 5 and 10 ul Solution-3d was added to column 6. Into rows A-C. 10 ul of Solution-1 was added to columns 1, 10 ul of Solution-4 was added to columns 2-6. Fluorimertic reading was then started.

T1 sequence (P03303 1538-1719): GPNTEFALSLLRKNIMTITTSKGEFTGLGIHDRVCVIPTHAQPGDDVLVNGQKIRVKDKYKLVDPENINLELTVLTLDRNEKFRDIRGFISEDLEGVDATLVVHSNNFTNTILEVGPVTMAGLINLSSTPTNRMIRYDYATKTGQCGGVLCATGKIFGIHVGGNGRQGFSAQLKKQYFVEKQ

Row | Molecule | inhibition of HRV 3C protease activity [1] | effect on the non specific proteolytic activity of the nasal wash specimen [2] | also measured
1 | CC(C)C[C@H](NC(=O)[C@@H](O)[C@H](N)Cc1ccccc1)C(=O)O [Bestatin] | did not inhibit | no effect | –
2 | CC(C)C[C@H](NC(=O)[C@H]1O[C@@H]1C(=O)O)C(=O)NCCCCN=C(N)N [E-64] | no inhibition | – | –
3 | CC(C)[C@@H]1C(=O)N(S(C)(=O)=O)[C@@H]2CCN(C(=O)/C=C/CN3CCCCC3)[C@H]21.Cl [GW311616A] | did not inhibit | – | –
4 | CC(C)CC(=O)N[C@H](C(=O)N[C@H](C(=O)N[C@@H](CC(C)C)[C@@H](O)CC(=O)N[C@@H](C)C(=O)N[C@@H](CC(C)C)[C@@H](O)CC(=O)O)C(C)C)C(C)C [Pepstatin A] (Isovaleryl-VV[Sta]A[Sta]-OH) | did not inhibit | no effect | –
5 | Ac-DEVD-CHO | – | no effect | –
6 | Heparin | did not inhibit | – | –
7 | M-Suc-Ala-Ala-Pro-Phe-p-Nitr (MeOSuc-AAPF-pNA; SMILES COC(=O)CCC(=O)N[C@@H](C)C(=O)N[C@@H](C)C(=O)N1CCC[C@H]1C(=O)N[C@@H](Cc1ccccc1)C(=O)Nc1ccc([N+](=O)[O-])cc1) [Sub.-2, Commercially available colorimetric a-Chymotrypsin substrate] | – | – | Inhibition % (a-Chymotrypsin Type IV; Sub.-2 40 nM): 10%; Rate FU/min (Average) (a-Chymotrypsin Type IV; Sub.-2 40 nM): 18000 FU/min; Inhibition % (a-Chymotrypsin Type IV; Sub.-2 400 nM): 20%; Rate FU/min (Average) (a-Chymotrypsin Type IV; Sub.-2 400 nM): 16000 FU/min; Inhibition % (a-Chymotrypsin Type IV; Sub.-2 4 uM): 40%; Rate FU/min (Average) (a-Chymotrypsin Type IV; Sub.-2 4 uM): 12000 FU/min; Inhibition % (a-Chymotrypsin Type IV; Sub.-2 40 uM): 55%; Rate FU/min (Average) (a-Chymotrypsin Type IV; Sub.-2 40 uM): 9000 FU/min
